What was measured:
Experiment in all cases: Binding assay
Conditions in all cases: smilagenin 1 μM
[1] = biological target: Melatonin MT2 (Homo sapiens, UniProt P49286)
Procedure, shortened: (§1)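 Tissue or cell homogenates carrying the receptor were exposed to a radiolabelled ligand of known concentration, with or without 1 μM test compound. Specific bound radioactivity after removing free ligand yielded percent inhibition; assay conditions and radioligand were target-dependent.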

[2] = biological target: T1, Histamine H3 (Homo sapiens, UniProt Q9Y5N1)
T1 construct: host or cells: tissue or cell homogenate (not specified)
Procedure, shortened: as §1

[3] = biological target: T2, Muscarinic M2 (Homo sapiens, UniProt P08172)
T2 construct: host or cells: tissue or cell homogenate, not specified
Procedure, shortened: as §1

[4] = biological target: Transporter, Choline (Rattus norvegicus, UniProt Q9JMD7)
Procedure, shortened: as §1

[5] = biological target: T3, Oestrogen (ERα) (Homo sapiens, UniProt P03372)
T3 construct: host or cells: tissue or cell homogenate (not specified)
Procedure, shortened: as §1

[6] = biological target: Melatonin MT1 (Homo sapiens, UniProt P48039)
Procedure, shortened: as §1

[7] = tested on: Potassium Channel [KATP]
Procedure, shortened: as §1

[8] = biological target: Retanoid X Receptor RXRα (Homo sapiens, UniProt P19793)
Procedure, shortened: as §1

[9] = biological target: Leukotriene, Cysteinyl CysLT1 (Homo sapiens, UniProt Q9Y271)
Procedure, shortened: as §1

[10] = biological target: Bombesin BB1 (Homo sapiens, UniProt P28336)
Procedure, shortened: as §1

[11] = biological target: Calcitonin (Homo sapiens, UniProt P30988)
Procedure, shortened: as §1

[12] = biological target: T4, Dopamine D1 (Homo sapiens, UniProt P21728)
T4 construct: host or cells: tissue or cell homogenate, not specified
Procedure, shortened: as §1

[13] = biological target: Potassium Channel HERG (Homo sapiens, UniProt Q12809)
Procedure, shortened: as §1

[14] = biological target: N-Formyl Peptide Receptor FPR1 (Homo sapiens, UniProt P21462)
Procedure, shortened: as §1

[15] = biological target: 5-Hydroxytryptamine, 5-HT1B (Rattus norvegicus, UniProt P28564)
Procedure, shortened: as §1

[16] = biological target: T5, Transporter, 5-hydroxytryptamine (SERT) (Homo sapiens, UniProt P31645)
T5 construct: host or cells: tissue or cell homogenate, not specified
Procedure, shortened: as §1

[17] = biological target: Bradykinin B1 (Homo sapiens, UniProt P46663)
Procedure, shortened: as §1

[18] = biological target: Adrenergic α2C (Homo sapiens, UniProt P18825)
Procedure, shortened: as §1

[19] = biological target: Prostanoid EP2 (Homo sapiens, UniProt P43116)
Procedure, shortened: as §1

[20] = biological target: Adrenergic α1A (Rattus norvegicus, UniProt P43140)
Procedure, shortened: as §1

[21] = biological target: T6, G Protein-Coupled Receptor GPR8 (Homo sapiens, UniProt P48146)
T6 construct: host or cells: tissue or cell homogenate (not specified)
Procedure, shortened: as §1

[22] = biological target: Transporter, Dopamine (DAT) (Homo sapiens, UniProt Q01959)
Procedure, shortened: as §1

[23] = biological target: T7, Vasopressin V2 (Homo sapiens, UniProt P30518)
T7 construct: host or cells: tissue or cell homogenate, not specified
Procedure, shortened: as §1

[24] = biological target: T8, Galanin GAL1 (Homo sapiens, UniProt P47211)
T8 construct: host or cells: tissue or cell homogenate (not specified)
Procedure, shortened: as §1

[25] = biological target: Ryanodine RyR3 (Rattus norvegicus, UniProt A0ABK0LPH6)
Procedure, shortened: as §1

[26] = biological target: Melanocortin MC3 (Homo sapiens, UniProt P41968)
Procedure, shortened: as §1

[27] = biological target: Interleukin IL-1 (Mus musculus, UniProt P13504)
Procedure, shortened: as §1

[28] = biological target: Dopamine D2S (Homo sapiens, UniProt P14416)
Procedure, shortened: as §1

[29] = biological target: Corticotropin Releasing Factor (CRF1) (Homo sapiens, UniProt P34998)
Procedure, shortened: as §1

[30] = biological target: T9, Urotensin II (Homo sapiens, UniProt Q9UKP6)
T9 construct: host or cells: tissue or cell homogenate, not specified
Procedure, shortened: as §1

[31] = biological target: 5-Hydroxytryptamine, 5-HT6 (Homo sapiens, UniProt P50406)
Procedure, shortened: as §1

[32] = biological target: T10, Galanin GAL2 (Homo sapiens, UniProt O43603)
T10 construct: host or cells: tissue or cell homogenate (not specified)
Procedure, shortened: as §1

[33] = biological target: Prostanoid CRTH2 (Homo sapiens, UniProt Q9Y5Y4)
Procedure, shortened: as §1

[34] = biological target: Neuropeptide Y Y1 (Homo sapiens, UniProt P25929)
Procedure, shortened: as §1

[35] = biological target: T11, Histamine H1 (Homo sapiens, UniProt P35367)
T11 construct: host or cells: tissue or cell homogenate (not specified)
Procedure, shortened: as §1

[36] = biological target: T12, GABAB1A (Homo sapiens, UniProt Q9UBS5)
T12 construct: host or cells: tissue or cell homogenate (not specified)
Procedure, shortened: as §1

Chain of N-Formyl Peptide Receptor FPR1 (P21462 whole entry): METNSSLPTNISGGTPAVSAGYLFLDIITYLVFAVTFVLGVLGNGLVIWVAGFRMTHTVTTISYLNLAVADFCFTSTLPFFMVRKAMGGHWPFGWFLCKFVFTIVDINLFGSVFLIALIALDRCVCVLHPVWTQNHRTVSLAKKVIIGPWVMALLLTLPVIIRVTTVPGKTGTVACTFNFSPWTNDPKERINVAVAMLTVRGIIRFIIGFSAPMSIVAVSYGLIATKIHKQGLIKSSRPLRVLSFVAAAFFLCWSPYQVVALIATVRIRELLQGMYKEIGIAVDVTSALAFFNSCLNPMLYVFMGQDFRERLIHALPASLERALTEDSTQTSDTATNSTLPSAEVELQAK
T11 sequence (P35367 whole entry): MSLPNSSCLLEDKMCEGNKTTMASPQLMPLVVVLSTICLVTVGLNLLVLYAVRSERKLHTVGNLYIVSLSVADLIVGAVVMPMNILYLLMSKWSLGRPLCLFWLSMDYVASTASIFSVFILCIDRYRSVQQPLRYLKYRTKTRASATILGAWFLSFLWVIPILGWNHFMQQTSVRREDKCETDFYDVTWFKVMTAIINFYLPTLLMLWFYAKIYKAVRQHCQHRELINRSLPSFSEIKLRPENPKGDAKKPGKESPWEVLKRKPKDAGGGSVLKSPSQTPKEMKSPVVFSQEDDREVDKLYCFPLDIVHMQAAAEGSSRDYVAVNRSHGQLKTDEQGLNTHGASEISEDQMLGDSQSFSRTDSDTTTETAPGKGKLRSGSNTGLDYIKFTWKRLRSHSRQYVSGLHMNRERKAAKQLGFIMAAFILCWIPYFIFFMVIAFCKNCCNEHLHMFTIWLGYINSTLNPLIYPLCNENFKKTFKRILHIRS
T5 sequence (P31645 whole entry): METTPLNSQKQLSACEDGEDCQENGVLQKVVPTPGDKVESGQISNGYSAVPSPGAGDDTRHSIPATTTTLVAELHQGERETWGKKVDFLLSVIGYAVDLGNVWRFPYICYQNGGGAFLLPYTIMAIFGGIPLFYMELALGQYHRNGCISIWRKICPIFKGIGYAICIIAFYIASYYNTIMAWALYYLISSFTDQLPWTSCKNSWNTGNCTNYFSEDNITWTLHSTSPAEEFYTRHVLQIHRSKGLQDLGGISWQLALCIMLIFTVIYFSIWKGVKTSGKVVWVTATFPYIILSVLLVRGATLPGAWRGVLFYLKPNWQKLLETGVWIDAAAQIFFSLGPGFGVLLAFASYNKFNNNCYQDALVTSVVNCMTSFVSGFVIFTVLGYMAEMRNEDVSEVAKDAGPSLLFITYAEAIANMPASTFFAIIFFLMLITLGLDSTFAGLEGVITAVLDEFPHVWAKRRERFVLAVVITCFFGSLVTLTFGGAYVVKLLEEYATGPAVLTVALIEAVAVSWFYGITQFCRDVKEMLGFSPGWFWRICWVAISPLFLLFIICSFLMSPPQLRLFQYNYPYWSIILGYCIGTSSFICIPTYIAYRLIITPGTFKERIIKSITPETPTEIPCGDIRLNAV
Chain of 5-Hydroxytryptamine, 5-HT6 (P50406 whole entry): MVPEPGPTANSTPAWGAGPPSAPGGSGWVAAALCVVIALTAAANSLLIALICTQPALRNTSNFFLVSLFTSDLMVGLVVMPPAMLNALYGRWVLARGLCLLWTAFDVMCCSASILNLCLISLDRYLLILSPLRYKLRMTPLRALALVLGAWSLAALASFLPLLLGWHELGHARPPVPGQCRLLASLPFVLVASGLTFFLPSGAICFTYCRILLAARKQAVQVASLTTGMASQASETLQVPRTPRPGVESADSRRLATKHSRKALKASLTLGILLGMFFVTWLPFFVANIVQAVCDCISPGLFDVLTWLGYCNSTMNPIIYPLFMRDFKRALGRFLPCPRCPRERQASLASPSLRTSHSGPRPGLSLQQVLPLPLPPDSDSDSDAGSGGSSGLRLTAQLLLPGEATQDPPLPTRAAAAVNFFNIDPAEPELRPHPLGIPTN
T4 sequence (P21728 whole entry): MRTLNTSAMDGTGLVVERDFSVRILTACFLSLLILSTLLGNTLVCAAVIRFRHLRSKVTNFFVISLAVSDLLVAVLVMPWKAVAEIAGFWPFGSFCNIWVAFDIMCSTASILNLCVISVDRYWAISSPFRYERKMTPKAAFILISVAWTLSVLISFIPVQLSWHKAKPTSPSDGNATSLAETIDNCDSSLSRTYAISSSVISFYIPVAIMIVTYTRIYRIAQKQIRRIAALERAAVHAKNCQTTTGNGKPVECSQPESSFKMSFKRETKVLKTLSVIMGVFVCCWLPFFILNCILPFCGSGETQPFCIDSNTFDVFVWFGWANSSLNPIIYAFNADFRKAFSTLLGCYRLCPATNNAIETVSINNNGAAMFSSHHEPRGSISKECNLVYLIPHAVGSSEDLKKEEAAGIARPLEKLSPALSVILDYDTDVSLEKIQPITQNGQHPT
Chain of Transporter, Choline (Q9JMD7 whole entry): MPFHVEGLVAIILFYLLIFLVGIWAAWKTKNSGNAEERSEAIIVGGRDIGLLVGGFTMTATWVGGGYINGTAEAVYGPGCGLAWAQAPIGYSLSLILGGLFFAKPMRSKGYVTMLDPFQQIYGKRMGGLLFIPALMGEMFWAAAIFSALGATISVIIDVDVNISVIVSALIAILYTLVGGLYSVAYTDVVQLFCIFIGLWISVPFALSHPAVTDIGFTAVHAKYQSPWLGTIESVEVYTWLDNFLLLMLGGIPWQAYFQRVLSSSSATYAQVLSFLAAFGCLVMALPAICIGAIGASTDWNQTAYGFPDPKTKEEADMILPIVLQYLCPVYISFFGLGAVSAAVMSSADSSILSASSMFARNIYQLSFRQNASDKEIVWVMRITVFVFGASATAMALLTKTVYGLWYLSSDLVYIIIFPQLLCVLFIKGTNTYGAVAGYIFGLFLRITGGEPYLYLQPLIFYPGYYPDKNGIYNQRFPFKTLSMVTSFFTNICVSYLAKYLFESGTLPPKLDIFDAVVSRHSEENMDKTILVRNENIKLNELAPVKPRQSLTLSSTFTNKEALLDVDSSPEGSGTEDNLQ
T12 sequence (Q9UBS5 15-961 limits assumed): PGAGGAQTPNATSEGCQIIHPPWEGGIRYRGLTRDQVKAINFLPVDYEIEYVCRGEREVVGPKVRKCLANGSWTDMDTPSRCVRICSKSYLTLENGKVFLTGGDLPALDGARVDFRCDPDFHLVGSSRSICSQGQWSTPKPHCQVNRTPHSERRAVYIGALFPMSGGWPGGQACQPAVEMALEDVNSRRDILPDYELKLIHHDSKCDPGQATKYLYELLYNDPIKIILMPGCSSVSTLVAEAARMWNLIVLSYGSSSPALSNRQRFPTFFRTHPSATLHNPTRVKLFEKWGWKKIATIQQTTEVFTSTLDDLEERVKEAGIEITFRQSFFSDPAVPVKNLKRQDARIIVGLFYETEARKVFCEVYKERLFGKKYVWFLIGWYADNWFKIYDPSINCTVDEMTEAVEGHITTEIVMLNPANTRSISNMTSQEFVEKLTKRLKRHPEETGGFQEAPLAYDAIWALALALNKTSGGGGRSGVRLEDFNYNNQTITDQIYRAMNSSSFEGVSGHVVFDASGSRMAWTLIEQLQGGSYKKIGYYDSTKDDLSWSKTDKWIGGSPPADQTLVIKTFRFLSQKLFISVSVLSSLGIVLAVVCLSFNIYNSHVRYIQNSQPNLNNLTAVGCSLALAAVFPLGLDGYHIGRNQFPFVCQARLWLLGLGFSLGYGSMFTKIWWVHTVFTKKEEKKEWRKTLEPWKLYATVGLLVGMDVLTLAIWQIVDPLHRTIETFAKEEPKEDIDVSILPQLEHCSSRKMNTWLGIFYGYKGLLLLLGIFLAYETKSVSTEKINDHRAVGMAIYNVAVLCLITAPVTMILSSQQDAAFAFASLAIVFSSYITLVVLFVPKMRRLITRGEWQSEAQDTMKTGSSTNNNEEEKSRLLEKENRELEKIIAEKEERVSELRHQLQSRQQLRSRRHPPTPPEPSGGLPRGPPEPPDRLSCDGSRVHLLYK
T12 sequence (O75899 42-941 partner): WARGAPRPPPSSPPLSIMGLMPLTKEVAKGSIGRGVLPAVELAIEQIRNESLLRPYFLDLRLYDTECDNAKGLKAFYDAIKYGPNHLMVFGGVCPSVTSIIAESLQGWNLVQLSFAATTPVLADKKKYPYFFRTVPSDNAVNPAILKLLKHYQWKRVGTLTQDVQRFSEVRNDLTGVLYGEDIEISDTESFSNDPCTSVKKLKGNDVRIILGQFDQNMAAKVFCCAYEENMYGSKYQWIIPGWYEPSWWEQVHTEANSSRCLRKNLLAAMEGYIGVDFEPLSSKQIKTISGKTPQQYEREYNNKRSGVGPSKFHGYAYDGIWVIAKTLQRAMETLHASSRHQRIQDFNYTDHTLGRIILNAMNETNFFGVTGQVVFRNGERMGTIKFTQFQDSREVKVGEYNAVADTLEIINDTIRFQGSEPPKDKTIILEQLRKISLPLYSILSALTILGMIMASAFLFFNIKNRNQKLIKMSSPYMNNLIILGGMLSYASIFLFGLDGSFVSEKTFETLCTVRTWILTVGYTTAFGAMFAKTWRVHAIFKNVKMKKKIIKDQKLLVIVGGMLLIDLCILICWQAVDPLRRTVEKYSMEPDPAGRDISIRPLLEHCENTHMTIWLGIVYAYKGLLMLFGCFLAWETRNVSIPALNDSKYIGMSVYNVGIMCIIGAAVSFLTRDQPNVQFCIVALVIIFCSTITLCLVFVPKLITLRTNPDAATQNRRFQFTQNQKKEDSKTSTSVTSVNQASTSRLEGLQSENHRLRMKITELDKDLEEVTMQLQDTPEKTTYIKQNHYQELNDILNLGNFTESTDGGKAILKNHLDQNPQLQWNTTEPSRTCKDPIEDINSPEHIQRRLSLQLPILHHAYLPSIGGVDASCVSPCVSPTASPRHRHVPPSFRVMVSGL

C[C@@H]1CC[C@@]2(OC1)O[C@H]1C[C@H]3[C@@H]4CC[C@@H]5C[C@@H](O)CC[C@]5(C)[C@H]4CC[C@]3(C)[C@H]1[C@@H]2C [Smilagenin, smilagenin]
Effect (%) [1]: NS (NS = No significant response. Significance was taken as ≧30% stimulation or inhibition) | Effect (%) [2]: NS (NS = No significant response. Significance was taken as ≧30% stimulation or inhibition) | Effect (%) [3]: NS (NS = No significant response. Significance was taken as ≧30% stimulation or inhibition) | Effect (%) [4]: NS (NS = No significant response. Significance was taken as ≧30% stimulation or inhibition) | Effect (%) [5]: NS (NS = No significant response. Significance was taken as ≧30% stimulation or inhibition) | Effect (%) [6]: NS (NS = No significant response. Significance was taken as ≧30% stimulation or inhibition) | Effect (%) [7]: NS (NS = No significant response. Significance was taken as ≧30% stimulation or inhibition) | Effect (%) [8]: NS (NS = No significant response. Significance was taken as ≧30% stimulation or inhibition) | Effect (%) [9]: NS (NS = No significant response. Significance was taken as ≧30% stimulation or inhibition) | Effect (%) [10]: NS (NS = No significant response. Significance was taken as ≧30% stimulation or inhibition) | Effect (%) [11]: NS (NS = No significant response. Significance was taken as ≧30% stimulation or inhibition) | Effect (%) [12]: NS (NS = No significant response. Significance was taken as ≧30% stimulation or inhibition) | Effect (%) [13]: NS (NS = No significant response. Significance was taken as ≧30% stimulation or inhibition) | Effect (%) [14]: NS (NS = No significant response. Significance was taken as ≧30% stimulation or inhibition) | Effect (%) [15]: NS (NS = No significant response. Significance was taken as ≧30% stimulation or inhibition) | Effect (%) [16]: NS (NS = No significant response. Significance was taken as ≧30% stimulation or inhibition) | Effect (%) [17]: NS (NS = No significant response. Significance was taken as ≧30% stimulation or inhibition) | Effect (%) [18]: NS (NS = No significant response. Significance was taken as ≧30% stimulation or inhibition) | Effect (%) [19]: NS (NS = No significant response. Significance was taken as ≧30% stimulation or inhibition) | Effect (%) [20]: NS (NS = No significant response. Significance was taken as ≧30% stimulation or inhibition) | Effect (%) [21]: NS (NS = No significant response. Significance was taken as ≧30% stimulation or inhibition) | Effect (%) [22]: NS (NS = No significant response. Significance was taken as ≧30% stimulation or inhibition) | Effect (%) [23]: NS (NS = No significant response. Significance was taken as ≧30% stimulation or inhibition) | Effect (%) [24]: NS (NS = No significant response. Significance was taken as ≧30% stimulation or inhibition) | Effect (%) [25]: NS (NS = No significant response. Significance was taken as ≧30% stimulation or inhibition) | Effect (%) [26]: NS (NS = No significant response. Significance was taken as ≧30% stimulation or inhibition) | Effect (%) [27]: NS (NS = No significant response. Significance was taken as ≧30% stimulation or inhibition) | Effect (%) [28]: NS (NS = No significant response. Significance was taken as ≧30% stimulation or inhibition) | Effect (%) [29]: NS (NS = No significant response. Significance was taken as ≧30% stimulation or inhibition) | Effect (%) [30]: NS (NS = No significant response. Significance was taken as ≧30% stimulation or inhibition) | Effect (%) [31]: NS (NS = No significant response. Significance was taken as ≧30% stimulation or inhibition) | Effect (%) [32]: NS (NS = No significant response. Significance was taken as ≧30% stimulation or inhibition) | Effect (%) [33]: NS (NS = No significant response. Significance was taken as ≧30% stimulation or inhibition) | Effect (%) [34]: NS (NS = No significant response. Significance was taken as ≧30% stimulation or inhibition) | Effect (%) [35]: NS (NS = No significant response. Significance was taken as ≧30% stimulation or inhibition) | Effect (%) [36]: NS (NS = No significant response. Significance was taken as ≧30% stimulation or inhibition)

— patent US20120034193A1, “TREATMENT OF NEUROTROPHIC FACTOR MEDIATED DISORDERS” (priority 2009, published 2012)
